Experimental data as given in patent US5356928A, “Cytotoxic agents” (Hauser Chemical Research, Inc., priority 1993, dated 1994).
≈ marks a conversion by molar mass, not a printed value. Entries after “also recorded” stand apart in the source; their conditions may differ. Like-named read-outs stand apart in the source and are kept apart here.

Tests used:
[1] = cited from earlier work
[2] = system: taxol-resistant tumor cells; details: Taxotere vs taxol; cited from earlier work
[3] = system: tubulin; details: Taxotere compared with taxol; taxol per Schiff et al.; Kingston review; cited from earlier work
[4] = system: P388 murine leukemia cells; details: Taxotere vs taxol; cited from earlier work
[5] = system: macrophage-like J774.2 cells; details: mouse macrophage-like J774.2 cells; Taxotere vs taxol; cited from earlier work
[6] = system: B16 melanoma cells; test: B16 Melanoma Cell Proliferation; type: cell-based; details: for IC50: Mus musculus, read-out: B16 Proliferation ED50; for B16 Proliferation ED50 /ED50 Taxol: relative to control sample of taxol, less than 1 = greater activity than taxol
Experimental: The following procedures were employed:
B16 Melanoma Cell Proliferation. Cells were seeded in 24-well plates at 7.5×10^4 cells/well and grown in Delbecco's modified minimal essential medium (MEM) containing 10% bovine calf serum at 37° C. for 24 hours in a 97% humidified atmosphere of 5.5% CO2, the medium was then replaced with fresh medium containing taxol or its derivatives and dissolved in DMSO in concentrations ranging from […] to 1×10^-7 M for taxol and other derivatives. The final concentration of DMSO in the cell medium was 0.5% or less. […] After 40 hours, the cells were released by trypsinization and counted in a Coulter counter.
A number less than 1 in these columns indicates greater activity than taxol. A number greater than 1 in these columns indicates lower activity than taxol.

[7] = system: Tubulin free of microtubule-associated proteins; test: Tubulin Assembly (microtubule assembly; protein concentration of the supernatant); type: biochemical, bovine; details: for Tubulin Assembly ED50: concentration which reduces the supernatant protein concentration by 50%, tubulin 1 mg/ml, 37° C., 15 minutes, PEM buffer pH 6.9; for Tubulin Assembly ED50 /ED50 Taxol: relative to control sample of taxol, less than 1 = greater activity than taxol
From the text: This example illustrates the results of biological tests on the compounds of this invention and certain "controls" with respect to tubulin binding and the effect of these compounds on B16 melanoma. The following procedures were employed:
Tubulin Preparation and Assembly. The tubulin testing was done exactly as described by Himes (Georg, G. I., et al., "Synthesis of Biologically Active Taxol Analogs with Modified Phenylisoserine Side Chains", J. Med. Chem. Vol. 35: 4230, (1992)), incorporated herein by reference. Tubulin free of microtubule-associated proteins was purified from bovine brain as described in Algaier, J.; Himes, R. H., "The Effect of Dimethyl Sulfoxide on the Kinetics of Tubulin Assembly" Biochim. Biophys. Acta, Vol 954, pp 235-243, 1988. The assembly reaction was done at 37° C. in PEM buffer ([…], pH 6.9, 1 mM EGTA, and 1 mM MgSO4) at a protein concentration of 1 mg/ml (10 μM) in the presence of taxol or taxol analogs and 0.5 mM GTP. The reaction was monitored by the increase in the apparent absorbance at 350 nm.
Taxol has been included in Table 1 for reference. […] A number less than 1 in these columns indicates greater activity than taxol. A number greater than 1 in these columns indicates lower activity than taxol. These tests have been used and relied upon by researchers in this field to determine the potential efficacy of taxol and/or a taxol analog for the treatment of cancer.
^b Tubulin at 1 mg/ml was incubated with various concentrations of th
compounds at 37° C. for 15 minutes in 0.5 ml of PEM buffer (0.1M
Pipes, 1 mM EGTA, 1 mM MgSO4, pH 6.9). Samples were centrifuged and
the protein concentration on the supernatant was determined.
^d The concentration in μg/ml which reduces the supernatant protei

[8] = system: cell; details: literature on taxol and taxol analogs (Kingston); cited from earlier work
[9] = B16, concentration which reduces the number of cells by 50 [%] compared to a control, about 40 h at 37° C., highest concentration used 1000 ng/ml

| SMILES | B16 Proliferation ED50 /ED50 Taxol [6] | Tubulin Assembly ED50 [7] | Tubulin Assembly ED50 /ED50 Taxol [7] | IC50 ([6]; B16, 40 h) | other results |
| --- | --- | --- | --- | --- | --- |
| CC(=O)O[C@@]12CO[C@@H]1C[C@H](O)[C@@]1(C)C(=O)[C@H](O)C3=C(C)[C@@H](OC(=O)[C@H](O)[C@@H](NC(=O)OC(C)(C)C)c4ccccc4)C[C@@](O)([C@@H](OC(=O)c4ccccc4)[C@H]21)C3(C)C [Compound 2] |  |  |  |  | water solubility, in words [1]: improved water solubility; potency in taxol-resistant tumor cells, vs taxol [2]: at least five-fold more potent; activity as a promoter of tubulin polymerization / tubulin binding, in words [3]: slightly more active as a promoter of tubulin polymerization; also recorded: enhanced in vitro tubulin binding activity; potency as an inhibitor of replication, times more potent than taxol [4]: 1.5 times; potency as an inhibitor of replication, times more potent than taxol [5]: 1.5 times |
| CCCCCC(=O)N[C@@H](c1ccccc1)[C@@H](O)C(=O)O[C@H]1C[C@@]2(O)[C@@H](OC(=O)c3ccccc3)[C@@H]3[C@]4(OC(C)=O)CO[C@@H]4C[C@H](O[C@@H]4OCC(O)OC4O)[C@@]3(C)C(=O)[C@H](O)C(=C1C)C2(C)C (stereo partly shown) [Compound 14] | 8.28 | 1.45 µg/mL | 1.70 |  | IC50 [6, 9]: 0.186 µg/mL (≈ 0.201 µM) |
| CC(=O)O[C@H]1C(=O)[C@@]2(C)[C@H]([C@H](OC(=O)c3ccccc3)[C@]3(O)C[C@H](OC(=O)[C@H](O)[C@@H](NC(=O)c4ccccc4)c4ccccc4)C(C)=C1C3(C)C)[C@]1(OC(C)=O)CO[C@@H]1C[C@@H]2O [Compound 1, taxol] | 0.95 | 1.08 µg/mL | 1.26 |  | cytotoxicity / activity, in words [8]: significant cytotoxicity; ED50 for taxol in the assembly assay ([7]; control sample, denominator of ED50/ED50 Taxol, 15 min): 0.854 µg/mL; activity as a promoter of tubulin polymerization / tubulin binding, in words [3]: significant tubulin binding activity |
| CC(=O)O[C@H]1C(=O)[C@]2(C)[C@@H](O[C@@H]3OC[C@@H](O)[C@H](O)[C@H]3O)C[C@H]3OC[C@@]3(OC(C)=O)[C@H]2[C@H](OC(=O)c2ccccc2)[C@]2(O)C[C@H](OC(=O)[C@H](O)[C@@H](NC(=O)c3ccccc3)c3ccccc3)C(C)=C1C2(C)C [Compound 3, 7-xylosyl taxol] | 40.8 | 0.82 µg/mL | 0.80 | 0.925 µg/mL (≈ 0.938 µM) |  |
| C/C=C(\C)C(=O)N[C@@H](c1ccccc1)[C@@H](O)C(=O)O[C@H]1C[C@@]2(O)[C@@H](OC(=O)c3ccccc3)[C@@H]3[C@]4(OC(C)=O)CO[C@@H]4C[C@H](O[C@@H]4OCC(O)OC4O)[C@@]3(C)C(=O)[C@H](O)C(=C1C)C2(C)C (stereo partly shown) [Compound 10] | 14.1 | 0.82 µg/mL | 0.96 | 0.317 µg/mL (≈ 0.349 µM) |  |
| C/C=C(\C)C(=O)N[C@@H](c1ccccc1)[C@@H](O)C(=O)O[C@H]1C[C@@]2(O)[C@@H](OC(=O)c3ccccc3)[C@@H]3[C@]4(OC(C)=O)CO[C@@H]4C[C@H](O[C@@H]4OC[C@@H](O)[C@H](O)[C@H]4O)[C@@]3(C)C(=O)[C@H](O)C(=C1C)C2(C)C [Compound 9, 10-deacetyl-7-xylosyl cephalomannine] | 33.3 | 1.10 µg/mL | 1.10 | 0.755 µg/mL (≈ 0.819 µM) |  |
| CC(=O)O[C@@]12CO[C@@H]1C[C@H](O[C@@H]1OC[C@@H](O)[C@H](O)[C@H]1O)[C@@]1(C)C(=O)[C@H](O)C3=C(C)[C@@H](OC(=O)[C@H](O)[C@@H](NC(=O)c4ccccc4)c4ccccc4)C[C@@](O)([C@@H](OC(=O)c4ccccc4)[C@H]21)C3(C)C [Compound 5, 10-deacetyl-7-xylosyl taxol] | > 44 | 0.72 µg/mL | 0.70 | > 1 µg/mL |  |
| CC(=O)O[C@@]12CO[C@@H]1C[C@H](O[C@@H](CO)OCCO)[C@@]1(C)C(=O)[C@H](O)C3=C(C)[C@@H](OC(=O)[C@H](O)[C@@H](NC(=O)c4ccccc4)c4ccccc4)C[C@@](O)([C@@H](OC(=O)c4ccccc4)[C@H]21)C3(C)C [Compound 15] | 14.6 | 1.42 µg/mL | 1.66 |  | IC50 [6, 9]: 0.328 µg/mL (≈ 0.358 µM) |
| CC(=O)O[C@H]1C(=O)[C@]2(C)[C@@H](O[C@@H]3OCC(O)OC3O)C[C@H]3OC[C@@]3(OC(C)=O)[C@H]2[C@H](OC(=O)c2ccccc2)[C@]2(O)C[C@H](OC(=O)[C@H](O)[C@@H](NC(=O)c3ccccc3)c3ccccc3)C(C)=C1C2(C)C (stereo partly shown) [Compound 4] | 2.2 | 0.48 µg/mL | 0.57 |  | cytotoxicity, in words ([6]; B16 melanoma, compared to taxol or to precursors): comparable to results for taxol; IC50 [6, 9]: 0.05 µg/mL (≈ 0.0514 µM); tubulin binding / in vitro tubulin assembly, in words ([7]; compared to taxol or to precursors): comparable to results for taxol |
| CCCCCC(=O)N[C@@H](c1ccccc1)[C@@H](O)C(=O)O[C@H]1C[C@@]2(O)[C@@H](OC(=O)c3ccccc3)[C@@H]3[C@]4(OC(C)=O)CO[C@@H]4C[C@H](O[C@@H]4OC[C@@H](O)[C@H](O)[C@H]4O)[C@@]3(C)C(=O)[C@H](O)C(=C1C)C2(C)C [Compound 13, 10-deacetyl-7-xylosyl taxol C] | > 44 | 0.58 µg/mL | 0.60 | > 1 µg/mL |  |
| CC(=O)O[C@@]12CO[C@@H]1C[C@H](O[C@@H]1OCC(O)OC1O)[C@@]1(C)C(=O)[C@H](O)C3=C(C)[C@@H](OC(=O)[C@H](O)[C@@H](NC(=O)c4ccccc4)c4ccccc4)C[C@@](O)([C@@H](OC(=O)c4ccccc4)[C@H]21)C3(C)C (stereo partly shown) [Compound 6] | 15.1 | 0.68 µg/mL | 0.80 | 0.432 µg/mL (≈ 0.465 µM) |  |
